From the NIST ThermoML archive (doi:10.1016/j.jct.2013.05.029)
± gives the expanded uncertainty stated by the source.

Assays:
[1] = 101.33 kPa, Liquid, Vibrating tube method
[2] = refractive index (other wavelength) (dimensionless); settings: 101 kPa, Liquid, Wavelength=633 nm, Standard Abbe refractometry
[3] = relative permittivity at various frequencies (dimensionless); settings: 101 kPa, Liquid, Frequency=0.151 MHz, Parallel plate capacitor
[4] = refractive index (other wavelength) (dimensionless); xn = mol fraction of the nth substance listed; settings: 101 kPa, Liquid, Wavelength=633 nm, Standard Abbe refractometry

`CCCCn1cc[n+](C)c1.F[B-](F)(F)F` [1-butyl-3-methylimidazolium tetrafluoroborate] showed a mass density ([1]; 291.15 K) of 1206.3 ± 0.4 kg/m3, a mass density ([1]; 293.15 K) of 1204.9 ± 0.4 kg/m3 and a mass density ([1]; 295.14 K) of 1203.5 ± 0.4 kg/m3. It also gave a mass density ([1]; 298.15 K) of 1201.3 ± 0.4 kg/m3, a mass density ([1]; 300.14 K) of 1199.9 ± 0.4 kg/m3 and a mass density ([1]; 303.15 K) of 1197.7 ± 0.4 kg/m3. The mass density ([1]; 305.14 K) was 1196.3 ± 0.4 kg/m3, the mass density ([1]; 308.15 K) was 1194.1 ± 0.4 kg/m3 and the mass density ([1]; 310.14 K) was 1192.7 ± 0.4 kg/m3. It also gave a refractive index ([2]; 292.99 K) of 1.4207 ± 0.002, a refractive index ([2]; 298.14 K) of 1.4194 ± 0.002 and a refractive index ([2]; 300.94 K) of 1.4187 ± 0.002. The refractive index ([2]; 303.06 K) was 1.4182 ± 0.002 and the refractive index ([2]; 307.96 K) was 1.4169 ± 0.002.

With `OCCC(F)(F)C(F)(F)C(F)(F)C(F)(F)C(F)(F)C(F)(F)F` [1H,1H,2H,2H-perfluorooctanol] the mass density ([1]; 291.15 K) was 1692.2 ± 0.9 kg/m3, the mass density ([1]; 293.15 K) was 1688.7 ± 0.9 kg/m3 and the mass density ([1]; 295.14 K) was 1685.2 ± 0.9 kg/m3. For the same molecule, the mass density ([1]; 298.15 K) was 1679.9 ± 0.9 kg/m3, the mass density ([1]; 300.14 K) was 1676.4 ± 0.9 kg/m3 and the mass density ([1]; 303.15 K) was 1671 ± 0.9 kg/m3. The mass density ([1]; 305.14 K) was 1667.5 ± 0.9 kg/m3, the mass density ([1]; 308.15 K) was 1662.1 ± 0.8 kg/m3 and the mass density ([1]; 310.14 K) was 1658.5 ± 0.8 kg/m3. It also gave a refractive index ([2]; 292.89 K) of 1.3152 ± 0.0021, a refractive index ([2]; 297.98 K) of 1.3134 ± 0.0021 and a refractive index ([2]; 300.94 K) of 1.3125 ± 0.0021. For the same molecule, the refractive index ([2]; 304.98 K) was 1.3112 ± 0.0021, the refractive index ([2]; 307.95 K) was 1.3101 ± 0.0021 and the refractive index ([2]; 308.13 K) was 1.31 ± 0.0021. It also gave a relative permittivity ([3]; 293.15 K) of 9.67 ± 0.02, a relative permittivity ([3]; 298.15 K) of 9.21 ± 0.02 and a relative permittivity ([3]; 303.15 K) of 8.83 ± 0.02. The relative permittivity ([3]; 308.15 K) was 8.46 ± 0.02 and the relative permittivity ([3]; 313.15 K) was 8.12 ± 0.02.

Molecule `OCCC(F)(F)C(F)(F)C(F)(F)C(F)(F)C(F)(F)C(F)(F)F` [1H,1H,2H,2H-perfluorooctanol] + CCCCn1cc[n+](C)c1.F[B-](F)(F)F has a refractive index ([4]; 568.17 K, x2 = 0.483) of 1.3609 ± 0.0021, a refractive index ([4]; 568.17 K, x2 = 0.975) of 1.417 ± 0.002 and a refractive index ([4]; 569.9 K, x2 = 0.514) of 1.3635 ± 0.0021. For the same molecule, the refractive index ([4]; 569.9 K, x2 = 0.972) was 1.4162 ± 0.002, the refractive index ([4]; 570.62 K, x2 = 0.528) was 1.3648 ± 0.0021 and the refractive index ([4]; 570.62 K, x2 = 0.969) was 1.4157 ± 0.002. For the same molecule, the refractive index ([4]; 571.13 K, x2 = 0.539) was 1.3658 ± 0.0021, the refractive index ([4]; 571.13 K, x2 = 0.967) was 1.4153 ± 0.0021 and the refractive index ([4]; 571.88 K, x2 = 0.555) was 1.3673 ± 0.0021. The refractive index ([4]; 571.88 K, x2 = 0.963) was 1.4146 ± 0.0021, the refractive index ([4]; 572.59 K, x2 = 0.569) was 1.3686 ± 0.0021 and the refractive index ([4]; 572.59 K, x2 = 0.96) was 1.414 ± 0.002. The refractive index ([4]; 573.11 K, x2 = 0.585) was 1.3701 ± 0.002, the refractive index ([4]; 573.11 K, x2 = 0.958) was 1.4137 ± 0.0021 and the refractive index ([4]; 573.58 K, x2 = 0.595) was 1.3712 ± 0.002. It also gave a refractive index ([4]; 573.58 K, x2 = 0.953) of 1.4128 ± 0.0021, a refractive index ([4]; 574.07 K, x2 = 0.61) of 1.3726 ± 0.0021 and a refractive index ([4]; 574.07 K, x2 = 0.946) of 1.4119 ± 0.0021. For the same molecule, the refractive index ([4]; 574.57 K, x2 = 0.62) was 1.3736 ± 0.0021, the refractive index ([4]; 574.57 K, x2 = 0.944) was 1.4115 ± 0.0021 and the refractive index ([4]; 575.11 K, x2 = 0.641) was 1.3757 ± 0.0021. The refractive index ([4]; 575.11 K, x2 = 0.935) was 1.4102 ± 0.002, the refractive index ([4]; 575.59 K, x2 = 0.663) was 1.378 ± 0.0021 and the refractive index ([4]; 575.59 K, x2 = 0.93) was 1.4096 ± 0.002. It also gave a refractive index ([4]; 576.09 K, x2 = 0.684) of 1.3803 ± 0.002, a refractive index ([4]; 576.09 K, x2 = 0.917) of 1.4078 ± 0.0021 and a refractive index ([4]; 576.69 K, x2 = 0.729) of 1.3852 ± 0.0021. For the same molecule, the refractive index ([4]; 576.69 K, x2 = 0.892) was 1.4045 ± 0.0021.
